Measured values from publication PMC7984888, “Inhibitory Activity of Pyrroloisoxazolidine Derivatives against Chlamydia trachomatis” (BioMed Research International, 2021).

What was measured:
Type in all cases: cell-based
[1] = WST-1 cell viability; settings: human, uninfected HeLa cells, WST-1, relative to DMSO control as 100%
Protocol: Uninfected HeLa cells were cultured with 32 μM (the highest concentration used in antichlamydial analysis) of individual compound or 0.5% DMSO for 48 h. After 10 μL of WST-1 reagent was added, cells were incubated for an additional 1 h, and absorbance at 450 nm was recorded. The viability of compound-treated cells was calculated by the absorbance relative to that of DMSO control setting as 100% [22].

[2] = test system: Chlamydia trachomatis serovar D (strain UW-3/CX); experiment: Infectious progeny inhibition assay, C. trachomatis D; settings: Chlamydia trachomatis, HeLa, generation of infectious progeny EBs in HeLa cells, MOI 0.2, 36 hpi, 1 to 32 μM; read-out: IC50 (μM) Mean (95% confidence interval) Ct D
Protocol: (§1) Chlamydia trachomatis serovars D (strain UW-3/CX) and L2 (strain 434/Bu) were purchased from ATCC. HeLa cells purchased from ATCC were routinely cultured in DMEM supplemented with 10% heat-inactivated FBS (Sigma-Aldrich) and 10 μg/mL gentamicin at 37°C in a humidified atmosphere of 5% and were used for chlamydial propagation and cell culture experiments. EBs were purified by Renografin density gradient and stored in sucrose-phosphate-glutamate (SPG) buffer at -80°C [20]. A mouse polyclonal anti-MoPn (C. muridarum strain Nigg II) antibody, which was produced in our laboratory and cross-reacting with C. trachomatis D and L2, was used as a primary antibody for both stains detection.
(§2) Cell monolayers seeded onto coverslips in a 24-well plate were infected with C. trachomatis at a multiplicity of infection (MOI) of 0.2 inclusion-forming units (IFU) per cell. Unless noted, individual compound was added into culture medium at indicated concentrations simultaneously at the time of inoculation. 0.5% DMSO was used as negative control and 11.25 μM tetracycline (Sigma-Aldrich) as positive control. For C. trachomatis D, an additional centrifugation (900 × g at room temperature for 1 h) was applied to facilitate the infection. At 36 hours postinfection (hpi), infected cells were fixed by precooled methanol and then subjected to sequential staining processed with a primary antibody and a FITC-conjugated secondary antibody. Evans blue was used as cytoplasm counterstain. Images were shot by an Olympus IX51 fluorescence microscope.
(§3) Cells monolayers seeded in 48-well plate were infected and treated with chemicals as above. After incubation for 36 hours, infected cells were washed twice, scraped off, and lysed by sonication to release the infectious progeny EBs. Then the lysates were used to reinfect fresh cell monolayers grown in 96-well plate following 1 : 10 serial dilution. The inclusion counts were obtained by immunofluorescence staining as above to calculate the number of infectious progeny EBs in each sample. Percent inhibition was calculated based on EB counts in compound-treated samples relative to DMSO-treated negative control.
(§4) Data from the three independent experiments were presented as mean ± standard deviations (SD) and were subjected to pairwise Student's t-tests. p < 0.05 and p < 0.01 are considered statistically significant and statistically highly significant, respectively. The IC50 values, defined as the concentration of compound at which the generation of infectious progeny EBs was reduced by 50% relative to negative control, were calculated by nonlinear regression from percent inhibition data using the GraphPad Prism 5 software, and presented as mean (95% confidence interval).

[3] = test system: Chlamydia trachomatis serovar L2 (strain 434/Bu); experiment: Infectious progeny inhibition assay, C. trachomatis L2; settings: Chlamydia trachomatis, HeLa, generation of infectious progeny EBs in HeLa cells, MOI 0.2, 36 hpi, 1 to 32 μM; read-out: IC50 (μM) Mean (95% confidence interval) Ct L2
Protocol: as §1, §2, §3, §4

Row | Structure (SMILES) | viability at 48 h, 32 µM [1] [%] | IC50 [2] [µM] | IC50 [3] [µM]
1 | Brc1ccccc1C1c2ccccc3cccc2N2C(c4ccccc4)CC3C2ON1c1ccccc1 (stereo not drawn) [Compound 8] | 102 | 28.6 | 25.4
2 | Fc1ccc(N2C(c3cccc4ccccc34)CC3C(c4ccccc4Br)N(c4ccccc4)OC32)cc1 (stereo not drawn) [Compound 18] | 106 | 21 | > 32
3 | Fc1ccc(N2C(c3cccs3)CC3C(c4ccccc4Br)N(c4ccccc4)OC32)cc1 (stereo not drawn) [Compound 10] | ~90 | 15.4 | 17.4
4 | O=[N+]([O-])c1ccc(C2CC3C(c4ccccc4Br)N(c4ccccc4)OC3N2c2ccccc2)cc1 (stereo not drawn) [Compound 12] | 104 | 12.5 | 17.5
5 | Brc1ccccc1C1C2CC(c3ccccc3Br)N(c3ccccc3)C2ON1c1ccccc1 (stereo not drawn) [Compound 17] | 114 | 27.6 | > 32
6 | O=[N+]([O-])c1ccc(C2CC3C(c4ccccc4Cl)N(c4ccccc4)OC3N2c2ccccc2)cc1 (stereo not drawn) [Compound 15] | 104 | 12.2 | 9.77
7 | Fc1ccc(N2C(C3CCCCC3)CC3C(c4ccccc4Br)N(c4ccccc4)OC32)cc1 (stereo not drawn) [Compound 9] | 96.5 | 19.6 | > 32
8 | Brc1ccc(C2C3CC(c4ccccc4)N(c4ccccc4)C3ON2c2ccccc2)cc1 (stereo not drawn) [Compound 3] | 99.9 | 20.9 | 8.67
9 | COc1ccc(N2C(c3ccccc3)CC3C(c4ccc(Br)cc4)N(c4ccccc4)OC32)cc1 (stereo not drawn) [Compound 6] | ~90 | 16.9 | 9.08
10 | Brc1ccccc1C1C2CC(c3ccccc3)N(c3ccccc3)C2ON1c1ccccc1 (stereo not drawn) [Compound 7] | ~90 | > 32 | 19.1
11 | Cc1ccc(N2C(c3ccccc3)CC3C(c4ccccc4Br)N(c4ccccc4)OC32)cc1 (stereo not drawn) [Compound 13] | 95.7 | 16.3 | > 32
12 | Cc1ccc(C2CC3C(c4ccccc4Br)N(c4ccccc4)OC3N2c2ccccc2)cc1 (stereo not drawn) [Compound 11] | 99.7 | 23.5 | > 32
13 | COc1ccc(N2C(c3ccccc3)CC3C(c4cccc(Br)c4)N(c4ccccc4)OC32)cc1 (stereo not drawn) [Compound 5] | 95.2 | > 32 | 15.5
14 | Cc1ccc(C2CC3C(c4ccccc4)N(c4ccccc4)OC3N2c2ccc(C)cc2)cc1 (stereo not drawn) [Compound 16] | 96.5 | 5.93 | 13.5
15 | Brc1ccccc1C1C2CC(/C=C/c3ccccc3)N(c3ccccc3)C2ON1c1ccccc1 (stereo not drawn) [Compound 14] | 98 | 16.3 | 16.8
16 | COc1ccc(N2C(c3ccccc3)CC3C(c4ccccc4Br)N(c4ccccc4)OC32)cc1 (stereo not drawn) [Compound 4] | 97.5 | > 32 | 11.2
